Patent US9034886B2, “4-aminoquinazoline derivatives and uses thereof” (Shanghai Institute of Pharmaceutical Industry, priority 2011, dated 2015)

Assays:
[1] = test system: Jurkat E6-1 human T-cell lymphoma; assay: In vitro anti-proliferative effect, CCK-8 method, Jurkat E6-1; format: cell-based; settings: Homo sapiens, Jurkat E6.1
Method: (§1) The inhibitory activities of the compounds towards Hut78 T lymphocytic leukemia cells, Jurkat E6-1 human T-cell lymphoma, PANC-1 human pancreatic cancer cells, A549 human lung cancer cells, K562 human chronic myelogenous leukemia cells, Hep3B2.1-7 human liver cancer cells, MDA-MB-435s human breast cancer cells. Colo320 human colorectal cancer cell lines, and PC-3 human prostate cancer at two concentrations of 100 μM and 10 μM were determined. The inhibition percentages were obtained through CCK-8 method.

[2] = test system: Hep3B2.1-7 human liver cancer cells; assay: In vitro anti-proliferative effect, CCK-8 method, Hep3B; format: cell-based; settings: Homo sapiens, Hep3B cell strain, CCK-8 method; for inhibition at 10 µM: compound at 10 μM; for inhibition at 100 µM: compound at 100 μM
Method: as §1

[3] = test system: Hut78 T lymphocytic leukemia cells; assay: In vitro anti-proliferative effect, CCK-8 method, Hut78; format: cell-based; settings: Homo sapiens, HuT78, read-out: Hut-78 (inhibition %)
Method: as §1

[4] = test system: MDA-MB-435s human breast cancer cells; assay: In vitro anti-proliferative effect, CCK-8 method, MDA-MB-435s; format: cell-based; settings: Homo sapiens, MDA-MB-435S
Method: as §1

[5] = test system: A549 human lung cancer cells; assay: In vitro anti-proliferative effect, CCK-8 method, A549; format: cell-based; settings: Homo sapiens, A549
Method: as §1

[6] = test system: PC-3 human prostate cancer; assay: In vitro anti-proliferative effect, CCK-8 method, PC-3; format: cell-based; settings: Homo sapiens, PC-3 cell strain, CCK-8 method; for inhibition at 10 µM: compound at 10 μM; for inhibition at 100 µM: compound at 100 μM
Method: as §1

HDACs = assay: In vitro inhibition of HDACs (HDAC Inhibitor Drug Screening Kit, Biovision K340-100); format: biochemical; settings: for inhibitory activity on HDACs compared with MS-275: concentrations of 2 mM, 200 μM, and 40 μM
Method: The in vitro inhibitory activities of the compounds towards HDACs were tested according to the instructions in the HDAC Inhibitor Drug Screening Kit (Biovision/Catalog #K340-100).
(1) The compounds to be tested were each individually prepared as 2 mM, 200 μM and 40 μM solutions and their inhibitory activities at these concentrations were tested.

[7] = test system: K562 human chronic myelogenous leukemia cells; assay: In vitro anti-proliferative effect, CCK-8 method, K562; format: cell-based; settings: Homo sapiens, K562
Method: as §1

[8] = test system: PANC-1 human pancreatic cancer cells; assay: In vitro anti-proliferative effect, CCK-8 method, PANC-1; format: cell-based; settings: Homo sapiens, PANC-1
Method: as §1

[9] = test system: Colo320 human colorectal cancer cell lines; assay: In vitro anti-proliferative effect, CCK-8 method, Colo320; format: cell-based; settings: Homo sapiens, COLO 320, Colo320 cell strain, CCK-8 method; for inhibition at 10 µM: compound at 10 μM; for inhibition at 100 µM: compound at 100 μM
Method: as §1

HDAC1 = HDAC1 (Homo sapiens (Human), UniProt Q13547); assay: In vitro inhibition of subtype HDAC1 (HDAC1 Inhibitor Drug Screening Kit, Biovision); format: biochemical
Chain of HDAC1 (Q13547 whole entry): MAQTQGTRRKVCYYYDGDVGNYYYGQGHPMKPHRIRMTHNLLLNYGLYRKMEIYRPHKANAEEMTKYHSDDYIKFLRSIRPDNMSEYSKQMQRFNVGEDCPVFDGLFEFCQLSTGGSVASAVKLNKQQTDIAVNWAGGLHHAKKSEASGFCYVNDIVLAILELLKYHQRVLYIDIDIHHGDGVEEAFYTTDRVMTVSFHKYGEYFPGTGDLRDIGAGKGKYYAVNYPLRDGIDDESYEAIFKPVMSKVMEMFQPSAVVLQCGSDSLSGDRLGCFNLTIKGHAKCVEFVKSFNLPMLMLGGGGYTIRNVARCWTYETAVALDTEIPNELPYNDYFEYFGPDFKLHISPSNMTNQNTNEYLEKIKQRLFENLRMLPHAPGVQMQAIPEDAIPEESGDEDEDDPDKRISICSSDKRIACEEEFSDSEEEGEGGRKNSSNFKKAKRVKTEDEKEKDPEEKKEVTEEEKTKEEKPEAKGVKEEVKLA
Method: The in vitro inhibitory activities of the compounds towards the subtype HDAC1 were tested according to the instructions in the HDAC1 Inhibitor Drug Screening Kit (Biovision).
(1) The compounds to be tested were each individually prepared as 10 μM and 1 μM solutions and their inhibitory activities at these concentrations were tested.
Each dilution sample was placed in two wells and the enzyme inhibition IC50 of the compound was tested.

Nc1ccccc1NC(=O)c1ccc(Nc2ncnc3ccccc23)cc1 [Compound V-1, N-(2-aminophenyl)-4-(quinazoline-4-amino)benzamide]
inhibition at 10 µM [1]: 48.5% | inhibition at 100 µM [1]: 79.3% | inhibition at 10 µM [2]: 2.6% | inhibition at 100 µM [2]: 37.4% | inhibition at 10 µM [3]: 36% | inhibition at 100 µM [3]: 67.2% | inhibition at 10 µM [4]: 26.7% | inhibition at 100 µM [4]: 87.5% | inhibition at 10 µM [5]: 50.6% | inhibition at 100 µM [5]: 89.7% | inhibition at 10 µM [6]: 79.5% | inhibition at 100 µM [6]: 91.5% | Inhibition percentage (%) towards HDACs (HDACs; 40 μM): 9.4% | Inhibition percentage (%) towards HDACs (HDACs; 200 μM): 19.8% | Inhibition percentage (%) towards HDACs (HDACs; 2 mM): 65.2% | inhibition at 10 µM [7]: 22.4% | inhibition at 100 µM [7]: 30.8% | inhibition at 10 µM [8]: 40.2% | inhibition at 100 µM [8]: 65.4% | inhibition at 10 µM [9]: 33.7% | inhibition at 100 µM [9]: 78.3%

Nc1ccc(F)cc1NC(=O)c1ccc(Nc2ncnc3ccccc23)cc1 [Compound V-3, N-(2-amino-5-fluorophenyl)-4-(quinazoline-4-amino)benzamide]
inhibition at 10 µM [1]: 27.1% | inhibition at 100 µM [1]: 96% | inhibition at 10 µM [2]: -12.3% | inhibition at 100 µM [2]: 59.2% | inhibition at 10 µM [3]: 18.2% | inhibition at 100 µM [3]: 92.9% | inhibition at 10 µM [4]: 4.5% | inhibition at 100 µM [4]: 85.5% | inhibition at 10 µM [5]: -7.8% | inhibition at 100 µM [5]: 72.3% | inhibition at 10 µM [6]: 0.6% | inhibition at 100 µM [6]: 36.9% | Inhibition percentage (%) towards HDACs (HDACs; 40 μM): 9.5% | Inhibition percentage (%) towards HDACs (HDACs; 200 μM): 36.0% | Inhibition percentage (%) towards HDACs (HDACs; 2 mM): 78.2% | inhibition at 10 µM [7]: 51% | inhibition at 100 µM [7]: 85.1% | inhibition at 10 µM [8]: 5.7% | inhibition at 100 µM [8]: 5.5% | inhibition at 10 µM [9]: -7.1% | inhibition at 100 µM [9]: 47.2%

COc1cccc2ncnc(Nc3ccc(C(=O)Nc4ccccc4N)cc3)c12 [Compound V-7, N-(2-aminophenyl)-4-(5-methoxy-quinazoline-4-amino)benzamide]
inhibition at 10 µM [1]: 26.4% | inhibition at 100 µM [1]: 91% | inhibition at 10 µM [2]: 8.1% | inhibition at 100 µM [2]: 53.2% | inhibition at 10 µM [3]: 10.7% | inhibition at 100 µM [3]: 60.3% | inhibition at 10 µM [4]: -16.5% | inhibition at 100 µM [4]: 85.4% | inhibition at 10 µM [5]: -7.4% | inhibition at 100 µM [5]: 24.9% | inhibition at 10 µM [6]: 8.1% | inhibition at 100 µM [6]: 49.8% | IC50 (HDACs): 3990 nM | Inhibition percentage (%) towards HDACs (HDACs; 40 μM): 6.5% | Inhibition percentage (%) towards HDACs (HDACs; 200 μM): 22.1% | Inhibition percentage (%) towards HDACs (HDACs; 2 mM): 39.2% | inhibition at 10 µM [7]: 29.7% | inhibition at 100 µM [7]: 82.6% | inhibition at 1 µM (HDAC1; 1 μM, read-out: % Inhibition towards HDAC1): 50.1% | inhibition at 10 µM (HDAC1; 10 μM, read-out: % Inhibition towards HDAC1): 78.4% | inhibitory activity against HDAC1 compared with MS-275 (HDAC1; both concentrations 10 μM and 1 μM): superior to that of MS-275 | inhibition at 10 µM [8]: 1.1% | inhibition at 100 µM [8]: 35.2% | inhibition at 10 µM [9]: 8.9% | inhibition at 100 µM [9]: 48.5%

COc1cc2ncnc(NCc3ccc(C(=O)Nc4cc(-c5cccs5)ccc4N)cc3)c2cc1OC [Compound V-31, N-[2-amino-5-(2-thienyl)phenyl]-4-[(6,7-dimethoxyquinazoline-4-amino)methyl]benzamide]
inhibition at 10 µM [1]: 62.4% | inhibition at 100 µM [1]: 93.7% | inhibition at 10 µM [2]: -5% | inhibition at 100 µM [2]: 51.7% | inhibition at 10 µM [3]: 28.2% | inhibition at 100 µM [3]: 95.8% | inhibition at 10 µM [4]: 24.2% | inhibition at 100 µM [4]: 89.2% | inhibition at 10 µM [5]: 56.3% | inhibition at 100 µM [5]: 88.8% | inhibition at 10 µM [6]: 6.3% | inhibition at 100 µM [6]: 38.8% | Inhibition percentage (%) towards HDACs (HDACs; 40 μM): 3.5% | Inhibition percentage (%) towards HDACs (HDACs; 200 μM): 17.3% | Inhibition percentage (%) towards HDACs (HDACs; 2 mM): 69.8% | inhibition at 10 µM [7]: 27.9% | inhibition at 100 µM [7]: 67.7% | inhibition at 10 µM [8]: 20.8% | inhibition at 100 µM [8]: 50.6% | inhibition at 10 µM [9]: 76.3% | inhibition at 100 µM [9]: 77%

COc1ccc2c(NCc3ccc(C(=O)Nc4ccccc4N)cc3)ncnc2c1 [Compound V-32, N-(2-aminophenyl)-4-[(7-methoxyquinazoline-4-amino)methyl]benzamide]
Inhibition percentage (%) towards HDACs (HDACs; 40 μM): 2.2% | Inhibition percentage (%) towards HDACs (HDACs; 200 μM): 3.1% | Inhibition percentage (%) towards HDACs (HDACs; 2 mM): 42.5%

COc1ccc2ncnc(NCc3ccc(C(=O)Nc4ccccc4N)cc3)c2c1 [Compound V-33, N-(2-aminophenyl)-4-[(6-methoxyquinazoline-4-amino)methyl]benzamide]
IC50 (HDACs): 1010 nM | inhibitory activity according to in vitro IC50 value against HDACs compared with MS-275 (HDACs): better inhibitory activities than MS-275 | Inhibition percentage (%) towards HDACs (HDACs; 40 μM): 53.2% | Inhibition percentage (%) towards HDACs (HDACs; 200 μM): 66.8% | Inhibition percentage (%) towards HDACs (HDACs; 2 mM): 88.8% | inhibitory activity on HDACs compared with MS-275 (HDACs): significantly stronger inhibitory activities than MS-275

COc1cccc2c(NCc3ccc(C(=O)Nc4cc(F)ccc4N)cc3)ncnc12 [Compound V-35, N-(2-amino-5-fluorophenyl)-4-[(8-methoxyquinazoline-4-amino)methyl]benzamide]
Inhibition percentage (%) towards HDACs (HDACs; 40 μM): 10.1% | Inhibition percentage (%) towards HDACs (HDACs; 200 μM): 47.8% | Inhibition percentage (%) towards HDACs (HDACs; 2 mM): 81.8%

Nc1ccccc1NC(=O)c1ccc(CNc2ncnc3ccc([N+](=O)[O-])cc23)cc1 [Compound V-37, N-(2-aminophenyl)-4-[(6-nitroquinazoline-4-amino)methyl]benzamide]
Inhibition percentage (%) towards HDACs (HDACs; 40 μM): 24.0% | Inhibition percentage (%) towards HDACs (HDACs; 200 μM): 56.1% | Inhibition percentage (%) towards HDACs (HDACs; 2 mM): 65.7%

COCCOc1cc2ncnc(NCc3ccc(C(=O)Nc4ccncc4N)cc3)c2cc1OCCOC [Compound V-39, N-(2-amino-4-pyridyl)-4-[(6,7-dimethoxyethoxyquinazoline-4-amino)methyl]benzamide]
Inhibition percentage (%) towards HDACs (HDACs; 40 μM): 34.3% | Inhibition percentage (%) towards HDACs (HDACs; 200 μM): 58.0% | Inhibition percentage (%) towards HDACs (HDACs; 2 mM): 85.3%

COc1cc2ncnc(NCc3ccc(C(=O)Nc4ccncc4N)cc3)c2cc1OCCCN1CCOCC1 [Compound V-42]
IC50 (HDACs): 1670 nM | inhibitory activity according to in vitro IC50 value against HDACs compared with MS-275 (HDACs): better inhibitory activities than MS-275 | Inhibition percentage (%) towards HDACs (HDACs; 40 μM): 17.2% | Inhibition percentage (%) towards HDACs (HDACs; 200 μM): 46.7% | Inhibition percentage (%) towards HDACs (HDACs; 2 mM): 90.6% | inhibitory activity on HDACs compared with MS-275 (HDACs): significantly stronger inhibitory activities than MS-275

CC(=O)Nc1ccc2ncnc(NCc3ccc(C(=O)Nc4cc(-c5ccco5)ccc4N)cc3)c2c1 [Compound V-48, N-[2-amino-5-(2-furyl)phenyl]-4-[(6-acetamidoquinazoline-4-amino)methyl]benzamide]
inhibition at 10 µM [1]: 9.7% | inhibition at 100 µM [1]: 61.9% | inhibition at 10 µM [2]: -14% | inhibition at 100 µM [2]: 20.5% | inhibition at 10 µM [3]: 75.4% | inhibition at 100 µM [3]: 87.4% | inhibition at 10 µM [4]: 10% | inhibition at 100 µM [4]: 26.6% | inhibition at 10 µM [5]: 3.9% | inhibition at 100 µM [5]: 9.8% | inhibition at 10 µM [6]: -16.4% | inhibition at 100 µM [6]: 14.8% | Inhibition percentage (%) towards HDACs (HDACs; 40 μM): 14.0% | Inhibition percentage (%) towards HDACs (HDACs; 200 μM): 42.2% | Inhibition percentage (%) towards HDACs (HDACs; 2 mM): 85.0% | inhibition at 10 µM [7]: 20% | inhibition at 100 µM [7]: 57.2% | inhibition at 10 µM [8]: -2.2% | inhibition at 100 µM [8]: 51.8% | inhibition at 10 µM [9]: 2.9% | inhibition at 100 µM [9]: 17.9%
